According to paper PMC2912835 (Journal of Experimental & Clinical Cancer Research : CR, 2010):

What was measured:
[1] = system: Kit (hair depigmentation); parameters: method as in PMID 12966161; settings: mice; cited from earlier work
[2] = system: Ba/F3 cells stably transfected with KIT V560D; test: cells; settings: Mus musculus, BaF3, 24 h, read-out: IC50 of Stably Transfected Ba/F3 Cell Survival
Procedure: (§1) The ability of Kit mutants to act as survival factors was assessed in Kit-dependent Ba/F3 cells. Ba/F3 cells stably transfected with various KIT mutants were seeded in a 96-well tissue culture plate at a density of 5 × 10^3 cells per well. […] Cell viability was assessed by measuring the level of adenosine triphosphate using ATPlite assays (PerkinElmer Life Sciences, Boston, MA). Reconstituted ATPLite 1-step solution was added to each well followed by incubation with shaking for 2 minutes. The plate was read on a Victor Model 1420 multilabel counter (PerkinElmer Inc.) under the luminescence setting.

[3] = system: Ba/F3 cells stably transfected with KIT Y823D; test: cells; settings: Mus musculus, BaF3, 24 h, read-out: IC50 of Stably Transfected Ba/F3 Cell Survival
Procedure: as §1

[4] = system: Ba/F3 cells stably transfected with KIT V560D/V654A; test: cells; settings: Mus musculus, BaF3, 24 h, read-out: IC50 of Stably Transfected Ba/F3 Cell Survival
Procedure: as §1

[5] = system: Ba/F3 cells stably transfected with KIT AYins503-504; test: cells; settings: Mus musculus, BaF3, 24 h, read-out: IC50 of Stably Transfected Ba/F3 Cell Survival
Procedure: as §1

[6] = system: Ba/F3 cells stably transfected with KIT Δ552-559; test: cells; settings: Mus musculus, BaF3, 24 h, read-out: IC50 of Stably Transfected Ba/F3 Cell Survival
Procedure: as §1

[7] = system: Ba/F3 cells stably transfected with KIT V560D/T670I; test: cells; settings: Mus musculus, BaF3, 24 h, read-out: IC50 of Stably Transfected Ba/F3 Cell Survival
Procedure: as §1

[8] = system: Kit activity (hair depigmentation); test: In vivo hair depigmentation assay (surrogate marker of Kit activity); settings: female C57B6 mice
Procedure: Female C57B6 mice (6 to 8 weeks old; 20 to 30 g; Charles River Laboratories, Wilmington, MA) were anesthetized, and an area of skin 2 × 2 cm on the right flank was depilated. […] On day 21, photographs were taken for assessment of hair depigmentation. The same patch of skin was depilated again on day 28, and photographs for assessment of depigmentation were taken on day 35. All animal experimental procedures were conducted in accordance with the guidelines of the Amgen Animal Care and Use Committee and the Association for Assessment and Accreditation of Laboratory Animal Care standards.

Kit D816V mutant = target: T1, Kit D816V mutant (Homo sapiens, UniProt P10721, D816V); test: Cell-based Kit autophosphorylation assay, D816V mutant; settings: stably transfected CHO cells, up to 3000 nM
T1 construct: human wild-type KIT to yield full-length, mutant constructs; expressed in transfected cells; host or cells: AM-1/D CHO cells, stably transfected
Procedure: (§2) CHO cells stably transfected with wild-type or mutant isoforms of KIT were seeded in a 96-well tissue culture plate at a density of 2 × 10^4 cells per well. For stem cell factor (SCF) characterization experiments, cells were stimulated with serial dilutions of SCF for varying times. […] Cell lines transfected with activating KIT mutants were not stimulated with SCF in IC50 experiments. Cells were washed with phosphate-buffered saline and lysed in RIPA buffer (50 mM Tris, pH 7; 150 mM NaCl, 1% Igepal, 0.5% sodium deoxycholate, 0.1% SDS, 300 μM activated sodium vanadate, 1× protease inhibitor cocktail) for 30 minutes at 4°C with shaking. Cell lysates were added to a 96-well DELFIA microplate (PerkinElmer Inc.) coated with anti-Kit antibody (1 μg per well; AF332, R&D Systems, Inc.; Minneapolis, MN) and incubated for 2 hours. Lysates were then removed and the plate was washed 3 times with DELFIA wash buffer (PerkinElmer Inc.). […] The plate was then washed 3 times with DELFIA wash buffer before 0.01 μg of Eu-N1-labeled anti-mouse antibody (Cat. # AD0124, PerkinElmer Inc.) was added to each well. The plate was again incubated at room temperature for 1 hour and then washed 3 times with DELFIA wash buffer before the signal was detected by adding DELFIA enhancement buffer (PerkinElmer Inc.) to each well.

Kit = system: Kit; parameters: method as in PMID 16951187; settings: biochemical assays; read-out: IC50, inhibition of Kit activity; cited from earlier work
Kit V560D/V654A mutant = target: T2, Kit V560D/V654A mutant (Homo sapiens, UniProt P10721, V560D/V654A); test: Cell-based Kit autophosphorylation assay, V560D/V654A mutant; settings: autophosphorylation IC50 […] nM versus […] nM
T2 construct: human wild-type KIT to yield full-length, mutant constructs; expressed in transfected cells; host or cells: AM-1/D CHO cells, stably transfected
Procedure: as §2

PDGFR = system: PDGFR; parameters: method as in PMID 16951187; settings: biochemical assays; read-out: IC50, inhibition of PDGFR activity; cited from earlier work

For CCN(CC)CCNC(=O)c1c(C)[nH]c(/C=C2\C(=O)Nc3ccc(F)cc32)c1C [sunitinib], the Hair depigmentation [1] is listed as “Depigmentation has previously been observed”.
Compound CC1(C)CNc2cc(NC(=O)c3cccnc3NCc3ccncc3)ccc21 [Motesanib] has an IC50 [2] of 3 nM, an IC50 [3] of 62 nM and an IC50 [4] of 91 nM. For the same compound, the IC50 [5] was 11 nM, the IC50 [6] was 0.4 nM and the IC50 [7] was 180 nM. The “Hair depigmentation of regrown hair” value ([8]; 75 mg/kg oral twice daily for 21 days after depilation, assessed day 21, vs vehicle) was “markedly depigmented”, the “Hair depigmentation of regrown hair after cessation of treatment” value ([8]; treatment stopped day 21, depilated again day 28, assessed day 35) was “no apparent depigmentation” and the “Inhibition of autophosphorylation of the D816V mutant” value (Kit D816V mutant) was “neither motesanib nor imatinib inhibited”. For the same compound, the IC50 (Kit) was […], the “Loss of activity, V560D/V654A double mutant compared with V560D alone” value (Kit V560D/V654A mutant) was “fifteen-fold loss” and the IC50 (PDGFR) was 84 nM.
